Test [1] concerns the target T1, Adenosylhomocysteinase (Homo sapiens, UniProt P23526). Description: The kinetic constant for inhibition of S-adenosyl-homocysteine hydrolase by the compound.
Target sequence in this assay (P23526 whole entry): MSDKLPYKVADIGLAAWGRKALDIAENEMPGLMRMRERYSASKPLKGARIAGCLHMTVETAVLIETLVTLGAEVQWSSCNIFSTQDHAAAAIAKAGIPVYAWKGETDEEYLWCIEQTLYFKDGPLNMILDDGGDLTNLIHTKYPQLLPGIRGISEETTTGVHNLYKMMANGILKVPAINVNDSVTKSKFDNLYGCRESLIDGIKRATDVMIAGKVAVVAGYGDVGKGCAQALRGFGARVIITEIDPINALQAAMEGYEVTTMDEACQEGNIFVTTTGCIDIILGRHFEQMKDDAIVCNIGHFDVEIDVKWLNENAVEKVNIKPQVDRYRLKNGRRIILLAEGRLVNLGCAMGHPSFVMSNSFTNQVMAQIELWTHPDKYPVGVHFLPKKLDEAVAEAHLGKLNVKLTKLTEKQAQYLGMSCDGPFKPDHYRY
Test [2] in a line: Ratio of Kinact value to that of Ki value.
In test [3] the target is T1, Adenosylhomocysteinase. The test can be described thus: The kinetic constant for inhibition of S-adenosyl-homocysteine hydrolase obtained from human placenta by the compound.
Target sequence in this assay (P23526 2-432 limits assumed): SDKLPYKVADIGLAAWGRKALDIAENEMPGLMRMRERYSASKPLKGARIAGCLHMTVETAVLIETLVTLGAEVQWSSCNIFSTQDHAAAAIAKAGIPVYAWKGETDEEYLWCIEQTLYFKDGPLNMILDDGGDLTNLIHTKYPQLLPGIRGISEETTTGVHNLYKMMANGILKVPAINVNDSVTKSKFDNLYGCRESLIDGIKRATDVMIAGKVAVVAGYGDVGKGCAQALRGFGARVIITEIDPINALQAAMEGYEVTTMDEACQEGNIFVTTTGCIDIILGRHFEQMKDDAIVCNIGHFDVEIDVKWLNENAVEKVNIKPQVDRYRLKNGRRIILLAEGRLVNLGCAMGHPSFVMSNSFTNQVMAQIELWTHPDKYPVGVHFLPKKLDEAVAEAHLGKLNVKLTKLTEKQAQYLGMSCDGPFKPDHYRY

In turn, `Nc1ncnc2c1ncn2C1O[C@H](C=C(Br)Br)[C@@H](O)[C@H]1O` (some centres undefined) displayed a Ki in test [1] of 3.1 µM. The K inact/Ki in test [2] came out at 11600 M⁻¹ min⁻¹. Besides, the K inact in test [3] is 0.036 min⁻¹.
Turning to `Nc1ncnc2c1ncn2C1O[C@H](/C=C(/F)Br)[C@@H](O)[C@H]1O` (some centres undefined), in test [1], the Ki turned out to be 3.9 µM. In test [2], the K inact/Ki stood at 10200 M⁻¹ min⁻¹. In test [3], this compound registered a K inact of 0.04 min⁻¹.
For `Nc1ncnc2c1ncn2C1O[C@H](/C(Br)=C\Br)[C@@H](O)[C@H]1O` (some centres undefined) the same measures were 3.6 µM, 22500 M⁻¹ min⁻¹ and 0.081 min⁻¹.

The record behind these values is ChEMBL document CHEMBL1131055, “Discovery of type II (covalent) inactivation of S-adenosyl-L-homocysteine hydrolase involving its "hydrolytic activity": synthesis and evaluation of dihalohomovinyl nucleoside analogues derived from adenosine” (J Med Chem, 1998).
